Laboratory results reported in patent US8183351B2, “Avermectin derivatives” (Bayer Cropscience AG, priority 2006, dated 2012).

Tests used:
Format in all cases: in vivo
[1] = system: larvae of the mustard beetle (Phaedon cochleariae); experiment: Phaedon test (PHAECO spray treatment); conditions: 4 ppm active compound, sprayed Chinese cabbage discs
Protocol: Phaedon Test (PHAECO Spray Treatment)
• Solvents: 78 parts by weight of acetone • 1.5 parts by weight of dimethylformamide • Emulsifier: 0.5 part by weight of alkylaryl polyglyycol ether
After the desired period of time, the effect in % is determined. 100% means that all beetle larvae have been killed; 0% means that none of the beetle larvae have been killed.

[2] = system: unfed adult fleas (Ctenocephalides felis); experiment: Ctenocephalides felis; oral (CTECFE); conditions: Example J; 4 ppm active compound in citrated cattle blood, oral uptake
Protocol: Ctenocephalides felis; Oral (CTECFE)
(§1) • Solvent: Dimethyl sulphoxide
To produce a suitable preparation of active compound, 1 part by weight of active compound is mixed with the stated amount of solvent. Part of the concentrate is diluted with citrated cattle blood, and the desired concentration is prepared.
20 unfed adult fleas (Ctenocephalides felis) are placed into a chamber whose top and bottom ends are closed with gauze. A metal cylinder whose bottom end is closed with parafilm is placed onto the chamber. The cylinder contains the blood/active compound preparation, which can be taken up by the fleas through the parafilm membrane. The blood is warmed to 37° C., but the flea chamber is at room temperature.
After the desired period of time, the kill in % is determined. 100% means that all fleas have been killed; 0% means that none of the fleas have been killed.
(§2) In this test, for example, the following compounds of the preparation examples show good activity: see table

[3] = system: caterpillars of the army worm (Spodoptera frugiperda); experiment: Spodoptera frugiperda test (SPODFR spray treatment); conditions: Example I; 4 ppm active compound; sprayed maize leaf discs
Protocol: Spodoptera frugiperda Test (SPODFR Spray Treatment)
• Solvents: 78.0 parts by weight of acetone • 1.5 parts by weight of dimethylformamide • Emulsifier: 0.5 part by weight of alkylaryl polyglyycol ether
After the desired period of time, the effect in % is determined. 100% means that all caterpillars have been killed; 0% means that none of the caterpillars have been killed.

[4] = system: greenhouse red spider mite (Tetranychus urticae); experiment: Tetranychus test, OP-resistant (TETRUR spray treatment); conditions: sprayed bean leaf discs
Protocol: Tetranychus Test, OP-resistant (TETRUR Spray Treatment)
• Solvents: 78 parts by weight of acetone • 1.5 parts by weight of dimethylformamide • Emulsifier: 0.5 part by weight of alkylaryl polyglycol ether
(§3) To produce a suitable preparation of active compound, 1 part by weight of active compound is mixed with the stated amounts of solvents and emulsifier, and the concentrate is diluted with emulsifier-containing water to the desired concentration.
Discs of bean leaves (Phaseolus vulgaris) heavily infested by all stages of the greenhouse red spider mite (Tetranychus urticae) are sprayed with a preparation of active compound of the desired concentration.
After the desired period of time, the effect in % is determined 100% means that all spider mites have been killed; 0% means that none of the spider mites have been killed.
as §2

[5] = system: Lucilia cuprina larvae; experiment: Lucilia cuprina test (LUCICU); conditions: treated horsemeat
Protocol: Lucilia cuprina Test (LUCICU)
Description for Examples A and B
as §1
To produce a suitable preparation of active compound, 1 part by weight of active compound is mixed with the stated amount of water and the concentrate is diluted with water to the desired concentration.
Containers containing horsemeat treated with the active compound preparation of the desired concentration are populated with Lucilia cuprina larvae.
After the desired period of time, the kill in % is determined. 100% means that all larvae have been killed; 0% means that none of the larvae have been killed.
as §2

[6] = system: eggs, larvae and pupae of the whitefly (Bemisia tabaci); experiment: Bemisia tabaci test, normally sensitive strains (BEMITA); conditions: Example E; 0.8 ppm active compound; sprayed cotton plants
Protocol: Bemisia tabaci Test, Normally Sensitive Strains, (BEMITA)
• Solvent: 7 parts by weight of dimethylformamide • Emulsifier: 10 parts by weight of alkylaryl polyglycol ether
as §3
Cotton plants (Gossypium hirsutum) infected by eggs, larvae and pupae of the whitefly (Bemisia tabaci) are treated by being sprayed with the preparation of active compound at the desired concentration.
After the desired period of time, the kill in % is determined 100% means that all animals have been killed; 0% means that none of the animals have been killed.
as §2

[7] = system: adult Musca domestica; experiment: Musca domestica test (MUSCDO); conditions: Example C, treated sponge
Protocol: Musca domestica Test (MUSCDO)
as §1
To produce a suitable preparation of active compound, 1 part by weight of active compound is mixed with the stated amount of water, and the concentrate is diluted with water to the desired concentration.
Containers containing a sponge treated with the preparation of active compound of the desired concentration are populated with adult Musca domestica.
After the desired period of time, the kill in % is determined. 100% means that all flies have been killed; 0% means that none of the flies have been killed.
as §2

[8] = Example H, 0.032 ppm active compound
[9] = Example A, 0.8 ppm active compound
[10] = Example F, 0.00128 ppm active compound

Molecule: COC1CC(OC2C(C)=CCC3CC(CC4(CCC(C)C(C(C)C)O4)O3)OC(=O)C3C=C(C)C(O)C4OCC(=CC=CC2C)C34O)OC(C)C1OC(C)=O [4′-O-acetyl-4′-O-de(2,6-dideoxy-3-O-methyl-α-L-arabino-hexopyranosyl)-5-O-demethyl-25-de(1-methylpropyl)-22,23-dihydro-25-(1-methylethyl)-avermectin A1a, reference compound]
- Kill rate in % after 7 days ([1]; Example G): 0%
- Kill rate in % after 2 days [2]: 20%
- Kill rate in % after 5 days [3]: 0%
- Kill rate in % after 5 days [4, 8]: 0%

Molecule: CC[C@H](C)[C@H]1OC2(C=C[C@@H]1C)C[C@@H]1C[C@@H](C/C=C(\C)[C@@H](OC3CC(OC)C(OC(=O)C4(C)COCOC4)C(C)O3)[C@@H](C)/C=C/C=C3\CO[C@@H]4[C@H](O)C(C)=CC(C(=O)O1)[C@]34O)O2 (stereo partly drawn) [Example 14]
- Kill rate in % after 2 days [5, 9]: 100%
- Kill rate in % after 7 days [6]: 80%

Molecule: CC[C@H](C)[C@H]1OC2(C=C[C@@H]1C)C[C@@H]1C[C@@H](C/C=C(\C)[C@@H](OC3CC(OC)C(OC(=O)Cc4ccc(Cl)cc4)C(C)O3)[C@@H](C)/C=C/C=C3\CO[C@@H]4[C@H](O)C(C)=CC(C(=O)O1)[C@]34O)O2 (stereo partly drawn) [Example 94]
- Kill rate in % after 2 days ([7]; 100 ppm active compound): 80%

Molecule: CC[C@H](C)[C@H]1OC2(C=C[C@@H]1C)C[C@@H]1C[C@@H](C/C=C(\C)[C@@H](OC3CC(OC)C(OC(=O)C(C)n4cccn4)C(C)O3)[C@@H](C)/C=C/C=C3\CO[C@@H]4[C@H](O)C(C)=CC(C(=O)O1)[C@]34O)O2 (stereo partly drawn) [Example 48]
- Kill rate in % after 7 days ([1]; Example G): 100%
- Kill rate in % after 2 days [5, 9]: 100%
- Kill rate in % after 5 days [3]: 100%
- Kill rate in % after 2 days ([7]; 100 ppm active compound): 100%

Molecule: CC[C@H](C)[C@H]1OC2(C=C[C@@H]1C)C[C@@H]1C[C@@H](C/C=C(\C)[C@@H](OC3CC(OC)C(OC(=O)c4ccccc4)C(C)O3)[C@@H](C)/C=C/C=C3\CO[C@@H]4[C@H](O)C(C)=CC(C(=O)O1)[C@]34O)O2 (stereo partly drawn) [Example 2]
- Kill rate in % after 5 days [4, 10]: 80%

Molecule: CCC(C)C1OC2(C=CC1C)CC1CC(CC=C(C)C(OC3CC(OC)C(OC(=O)C(=NOC)c4ccc(Cl)cc4Cl)C(C)O3)C(C)C=CC=C3COC4C(O)C(C)=CC(C(=O)O1)C34O)O2 (stereo not drawn) [Example 90]
- Kill rate in % after 2 days ([7]; 100 ppm active compound): 100%

Molecule: 4′-O-acetyl-4′-O-de(2,6-dideoxy-3-O-methyl-α-L-arabino-hexopyrano-syl)-5-O-demethyl-avermectin A1a [reference compound]
- Kill rate in % after 7 days ([1]; Example D): 0%
- Kill rate in % after 2 days [5, 9]: 30%
- Kill rate in % after 2 days ([5]; Example B, 0.16 ppm active compound): 0%
- Kill rate in % after 7 days [6]: 0%
- Kill rate in % after 5 days [4, 10]: 0%
- Kill rate in % after 2 days ([7]; 0.8 ppm active compound): 0%
- Kill rate in % after 2 days ([7]; 100 ppm active compound): 60%

Molecule: CC[C@H](C)[C@H]1OC2(C=C[C@@H]1C)C[C@@H]1C[C@@H](C/C=C(\C)[C@@H](OC3CC(OC)C(OC(=O)CN4CCCCC4)C(C)O3)[C@@H](C)/C=C/C=C3\CO[C@@H]4[C@H](O)C(C)=CC(C(=O)O1)[C@]34O)O2 (stereo partly drawn) [Example 50]
- Kill rate in % after 7 days ([1]; Example G): 83%
- Kill rate in % after 2 days [5, 9]: 100%
- Kill rate in % after 2 days [2]: 50%
- Kill rate in % after 5 days [3]: 100%
- Kill rate in % after 2 days ([7]; 100 ppm active compound): 90%

Molecule: CC[C@H](C)[C@H]1OC2(C=C[C@@H]1C)C[C@@H]1C[C@@H](C/C=C(\C)[C@@H](OC3CC(OC)C(OC(=O)C(C)N4CCOCC4)C(C)O3)[C@@H](C)/C=C/C=C3\CO[C@@H]4[C@H](O)C(C)=CC(C(=O)O1)[C@]34O)O2 (stereo partly drawn) [Example 52, 4′-O-(2-morpholin-4-ylpropanoyl)-avermectin B1 monosaccharide]
- Kill rate in % after 7 days ([1]; Example G): 100%
- Kill rate in % after 2 days [5, 9]: 100%
- Kill rate in % after 2 days [2]: 50%
- Kill rate in % after 5 days [3]: 100%

Molecule: CC[C@H](C)[C@H]1OC2(C=C[C@@H]1C)C[C@@H]1C[C@@H](C/C=C(\C)[C@@H](OC3CC(OC)C(OC(=O)C(C)(C)n4cncn4)C(C)O3)[C@@H](C)/C=C/C=C3\CO[C@@H]4[C@H](O)C(C)=CC(C(=O)O1)[C@]34O)O2 (stereo partly drawn) [Example 20]
- Kill rate in % after 7 days ([1]; Example D): 80%
- Kill rate in % after 2 days [5, 9]: 100%

Molecule: CC[C@H](C)[C@H]1OC2(C=C[C@@H]1C)C[C@@H]1C[C@@H](C/C=C(\C)[C@@H](OC3CC(OC)C(OC(=O)CN(C)C(=O)OC(C)(C)C)C(C)O3)[C@@H](C)/C=C/C=C3\CO[C@@H]4[C@H](O)C(C)=CC(C(=O)O1)[C@]34O)O2 (stereo partly drawn) [Example 55]
- Kill rate in % after 2 days [5, 9]: 90%
- Kill rate in % after 2 days ([7]; 100 ppm active compound): 90%

Molecule: CC[C@H](C)[C@H]1OC2(C=C[C@@H]1C)C[C@@H]1C[C@@H](C/C=C(\C)[C@@H](OC3CC(OC)C(OC(=O)Cc4nc(-c5cccs5)sc4C)C(C)O3)[C@@H](C)/C=C/C=C3\CO[C@@H]4[C@H](O)C(C)=CC(C(=O)O1)[C@]34O)O2 (stereo partly drawn) [Example 91]
- Kill rate in % after 2 days ([7]; 100 ppm active compound): 90%

Molecule: CCC(C)C1OC2(C=CC1C)CC1CC(CC=C(C)C(OC3CC(OC)C(OC(=O)C4C(C=C(Cl)Cl)C4(C)C)C(C)O3)C(C)C=CC=C3COC4C(O)C(C)=CC(C(=O)O1)C34O)O2 (stereo not drawn) [Example 89]
- Kill rate in % after 2 days ([7]; 100 ppm active compound): 100%

Molecule: CC[C@H](C)[C@H]1OC2(C=C[C@@H]1C)C[C@@H]1C[C@@H](C/C=C(\C)[C@@H](OC3CC(OC)C(OC(=O)Cc4nn(C)c(=O)n4C)C(C)O3)[C@@H](C)/C=C/C=C3\CO[C@@H]4[C@H](O)C(C)=CC(C(=O)O1)[C@]34O)O2 (stereo partly drawn) [Example 60]
- Kill rate in % after 7 days ([1]; Example G): 100%
- Kill rate in % after 2 days [5, 9]: 90%
- Kill rate in % after 2 days [2]: 50%
- Kill rate in % after 2 days ([7]; 100 ppm active compound): 100%

Molecule: CC[C@H](C)[C@H]1OC2(C=C[C@@H]1C)C[C@@H]1C[C@@H](C/C=C(\C)[C@@H](OC3CC(OC)C(OC(=O)Cc4cccs4)C(C)O3)[C@@H](C)/C=C/C=C3\CO[C@@H]4[C@H](O)C(C)=CC(C(=O)O1)[C@]34O)O2 (stereo partly drawn) [Example 13]
- Kill rate in % after 2 days ([7]; 0.8 ppm active compound): 50%

Molecule: CC[C@H](C)[C@H]1OC2(CC[C@@H]1C)C[C@@H]1C[C@@H](C/C=C(\C)[C@@H](OC3CC(OC)C(OC(=O)C(C)(C)n4cncn4)C(C)O3)[C@@H](C)/C=C/C=C3\CO[C@@H]4[C@H](O)C(C)=CC(C(=O)O1)[C@]34O)O2 (stereo partly drawn) [Example 23]
- Kill rate in % after 7 days ([1]; Example G): 100%
- Kill rate in % after 5 days [4, 8]: 70%

Molecule: CC[C@H](C)[C@H]1OC2(C=C[C@@H]1C)C[C@@H]1C[C@@H](C/C=C(\C)[C@@H](OC3CC(OC)C(OC(=O)CN(C)C)C(C)O3)[C@@H](C)/C=C/C=C3\CO[C@@H]4[C@H](O)C(C)=CC(C(=O)O1)[C@]34O)O2 (stereo partly drawn) [Example 57]
- Kill rate in % after 7 days ([1]; Example G): 100%
- Kill rate in % after 2 days [5, 9]: 100%
- Kill rate in % after 2 days [2]: 40%
- Kill rate in % after 2 days ([7]; 100 ppm active compound): 90%

Molecule: CCC(C)C1OC2(C=CC1C)CC1CC(CC=C(C)C(OC3CC(OC)C(OC(=O)C(C)NC(C)=O)C(C)O3)C(C)C=CC=C3COC4C(O)C(C)=CC(C(=O)O1)C34O)O2 (mixture of isomers) [Example 54]
- Kill rate in % after 7 days ([1]; Example G): 100%
- Kill rate in % after 2 days [5, 9]: 80%
